These results are taken from US12564609B2, “Hematopoietic stem cell engraftment with a combination of agents” (The Board of Trustees of the Leland Stanford Junior …, priority 2020, dated 2026).

Assay [1] has as its system donor HSC engraftment. Put plainly: Allogeneic (minor MHC-mismatched) transplantation, donor chimerism in peripheral blood. In kind it is in vivo, BALB.B mice. Here is the method: A. Schematic of allogeneic transplantation protocol. BALB.B mice (H-2^b, Thy1.2, CD45.2) were recipients for B6 donors (H-2b, Thy1.1, CD45.1); ACK2 was injected 10 days prior transplantation, AZA was administered days −5 through −1 in dose 2.5 or 5 mg/kg/d, anti-CD4/CD8 were injected in dose 100 μg at days −2, −1 and at the day of transplant (day 0); recipients received 15×10^6 WBM cells or 5×10^4 LSK at d0; chimerism analysis was assessed by flow cytometry using CD45 marker to distinguish between donor and recipient total, myeloid (Gr1^+Mac1^+), B-cells (CD19^+CD3^−) and T-cells (CD19^−CD3^+). B. Multilineage donor-derived chimerism after conditioning with ACK2, AZA 2.5 mg/kg, AZA 5 mg/kg or their combination and transplantation of 15×10^6WBM cells. Chimerism levels from peripheral blood are shown at 4, 14 and 26 weeks post-HCT. Data represent mean±SD (n=4 per group). C. Multilineage donor-derived chimerism in peripheral blood at 4, 14 and 26 weeks following conditioning with single agent ACK2, single agent AZA 5 mg/kg/d or their combination and transplantation of 5×10^4 Lin^− Sca1^+c-Kit^+ cells (LSK). Data represent mean±SD (n=3-5 per group) between the donor and recipient.
Mice. […]
Bone marrow cell preparation and HSC isolation for transplantation experiments. […] Cells were filtered through 70-μm filter, lysed in ACK lysis buffer and counted on Invitrogen Countess. […]

Assay [2] relates to donor HSC engraftment. Kind of assay: Congenic hematopoietic cell transplantation, donor chimerism in peripheral blood. In kind it is in vivo, B6 mice. The source says: Mice. C57BL/6 (B6) mice (H-2^b, Thy1.1, CD45.1/CD45.2) were recipients and B6 mice (H-2^b, Thy1.1, CD45.1) were donors for the congenic transplant experiments. BALB.B (H-2^b, Thy1.2, CD45.2) mice were used as recipients and B6 mice (H-2^b, Thy1.1, CD45.1) as donors for […] (allogeneic) transplant experiments. Recipients were >8 weeks old and donors were 8-12 weeks old at timepoint of transplantation. B6 (H-2^b, Thy1.1, CD45.2) mice were used for in vivo depletion studies. Mice were bred and maintained under pathogen free conditions at the Stanford University Research Animal Facility. All experiments were performed under a protocol approved by the Stanford Administrative Panel on Laboratory Animal Care.
In vivo administration of therapeutic agents and cytokines. Anti-mouse CD117 mAbs, clone ACK2 (BioXcell) and 2B8 (BioXcell), were injected retroorbital as a single dose of 500 μg following intraperitoneal administration of Diphenhydramine (Benadryl). Anti CD4 (clone GK1.5, BioXcell) and anti-CD8 (clone YTS169.4, BioXcell) were administered intraperitoneally at a dose of 100 μg in 100 μl phosphate-buffered saline (PBS). […] Before each injection, AZA was thawed for 10-15 min at room temperature (RT), resuspended in PBS and administered intraperitoneally in 100 μl. […]

For the compound `Nc1ncn([C@@H]2O[C@H](CO)[C@@H](O)[C@H]2O)c(=O)n1` [AZA, 5-Azacytidine], in assay [1] (AZA 5 mg/kg/d, anti-CD4/CD8, 15×10^6 allogeneic WBM cells), the donor engraftment result is on record as “successful donor engraftment was achieved”. In addition, the “total donor chimerism over time” value in assay [1] (AZA alone group, 15×10^6 allogeneic WBM cells) is given as “noted to decrease”. Moreover, the “stable engraftment of donor WBM” value in assay [2] (AZA 2.5 mg/kg for 5 days, 20×10^6 congenic WBM cells) is “does not enable stable engraftment”. Also, the myeloid donor chimerism in assay [2] (single agent AZA 5 mg/kg for 5 days, congenic WBM cells) is 10-15%.
